From patent US20040044264A1, “Use of ionic liquids to separate olefins, diolefins and aromatics” (NOVA Chemicals (International) S.A., priority 2002, published 2004)
Read-outs that look alike come from different tables or passages of the source. Marks after values point to notes of the source that are not given here. Each block holds one compound with its values, some of them ahead of it.

Test: Hydrocarbon solubility in ionic liquid (volume change of hydrocarbon phase in graduated flask)
Procedure: The testing apparatus consisted of a flat-bottomed florence flask with a graduated neck. The flask was charged with 75 mL of bmim^+BF4^−, the level being recorded. A known quantity of C5 hydrocarbon was then added to the flask and the flask was sealed. The overall liquid level and the location of the liquid-liquid interfacial meniscus were recorded. The mixture was then agitated to contact the two liquids and the two phases were allowed to separate. The locations of all meniscuses were then recorded. Agitation and phase separation was then repeated until the liquid levels remained unchanged. The volume change of the hydrocarbon phase corresponds to the quantity of hydrocarbon dissolved in the ionic liquid. The testing was conducted at ambient temperature.
The procedure described in Example 1 was performed instead with ethylcyclohexane, ethylbenzene, and styrene. The ionic liquid used was 1-butyl-3-methylimidazolium tetrafluoroborate.

[1] = in bmim+ BF4- ionic liquid containing 1.69 M AgBF4
[2] = in bmim+ BF4- ionic liquid containing 1.69 M AgBF4, ambient temperature

Solubility (mol C8/L ionic liquid) [1]: 7.55 mol C8/L ionic liquid | Solubility (mol C8/mol Ag+) [1]: 4.47 mol C8/mol Ag+
Compound: CCc1ccccc1 [Ethylbenzene]

Solubility (mol C8/L ionic liquid): 0.10 mol C8/L ionic liquid | Solubility (mol C8/mol Ag+): 0.06 mol C8/mol Ag+
Compound: CCC1CCCCC1 [Ethylcyclohexane]

Solubility (mol C5/L ionic liquid): 0.044 mol C5/L ionic liquid | Solubility (mol C5/mol Ag+): 0.026 mol C5/mol Ag+
Compound: CCC(C)C [Isopentane]

Compound: C=CC(=C)C [Isoprene]
Solubility (mol C5/L ionic liquid) [2]: 1.132 mol C5/L ionic liquid | Solubility (mol C5/mol Ag+) [2]: 0.670 mol C5/mol Ag+

Solubility (mol C8/L ionic liquid) [1]: > 7.01* mol C8/L ionic liquid | Solubility (mol C8/mol Ag+) [1]: 4.15* mol C8/mol Ag+
Compound: C=Cc1ccccc1 [Styrene]
